From US20060121449A1, “Method for selection of compounds which inhibit clonal cell growth and use thereof” (priority 2002, published 2006)
Entries after “also recorded” stand apart in the source; their conditions may differ.

Assays:
[1] = tested on: polyoma virus transformed BHK21/c13 cells, line S100T1; experiment: Collocation inhibition test: clonal growth in sparsely and densely seeded areas of a cell density gradient of S100T1 cells in soft agar (Exp 13, 17, 19-26); conditions: for Significance: Exp 17 day 14; for Clonal growth, H high density area of cell gradient, High / Clonal growth, L low density area of cell gradient, High / Clonal growth, H high density area of cell gradient, Low / Clonal growth, L low density area of cell gradient, Low / Clonal growth, H high density area of cell gradient, Medium / Clonal growth, L low density area of cell gradient, Medium / Effect on cell cloning in soft agar: preliminary results; for Clonal growth, H high density area of cell gradient, High / Clonal growth, L low density area of cell gradient, High / Clonal growth, H high density area of cell gradient, Low / Clonal growth, L low density area of cell gradient, Low / Clonal growth, H high density area of cell gradient, Medium / Clonal growth, L low density area of cell gradient, Medium: Exp 13-18, 21-26; for Effect on cell cloning in soft agar: in words; for Resulting clonal growth of treated cultures: Experiment 26, read after 24 hours;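 for Clonal growth, H high density area of cell gradient, High: grades rise with clonal growth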;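 for Clonal growth, H high density area of cell gradient, Low: grades rise with clonal growth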;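 for Clonal growth, H high density area of cell gradient, Medium: grades rise with clonal growth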;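 for Clonal growth, L low density area of cell gradient, High: grades rise with clonal growth and minus or plus-minus means none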;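 for Clonal growth, L low density area of cell gradient, Low: grades rise with clonal growth and minus or plus-minus means none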;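 for Clonal growth, L low density area of cell gradient, Medium: grades rise with clonal growth and minus or plus-minus means none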;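 for all read-outs here: soft agar cultures in 24-well plates with a cell density gradient in the top layer, compounds applied from DMSO stocks, clonal growth scored in sparse versus dense areas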
[2] = tested on: polyoma virus transformed BHK21/c13 cells, clone S100T1; experiment: Clonal test: clonal growth of S100T1 cells in soft agar (Exp 2, 4, 6, 15, 16); type: cell-based, hamster
Procedure: The clonal test comprises: • 1. seeding cells in soft agar optionally containing growth factor(s); • 2. handling or incubation of special gels (e.g. ultra low gelling temperature agarose), including the production of cell density gradients. • 3. incubating in suitable temperature and atmosphere and; • 4. regular monitoring of the cells and development of clones.
The clonal test can be directed in fluid medium or in soft agar medium. Usually only transformed cells will form clones in soft agar.
After seeding and mixing, the tubes were placed in the refrigerator for about 1 hour to consolidate the ultra low melting point agarose.
120000 S100T1 cells of a polyoma virus transformed BHK21/c13 cell line, were seeded in 1 ml soft agar medium in Falcon 50 ml centrifuge tubes. […] On the top of the agar layer 0.5 ml fluid medium was added.
Agar cultures were prepared in wells of 24 well Falcon tissue culture plate. […] Insulin (Actrapid, Novo) was added in a concentration of 0.1 i.u./ml to BHK21/c13 cell cultures only.
The cells were all single cells. Each well received 32000 cells (Table 4). Plate: 24 wells Falcon tissue culture plate received a bottom layer composed as in Table 3:
The cells were all single cells.
The wells contained two layers, each of 0.3 ml agar.
The agarose was added to double distilled water and solved by heating in micro oven.

[3] = Exp 15, 32000 S100T1 cells/well

Compound: C[S+](C)[O-] [DMSO]
- Effect on formation of clones at 4.7% ([1]; Exp 17): inhibited formation of clones, but not completely
- Effect on formation of clones at 29.2 μl/700 μl or 4% ([1]; Exp 17): inhibited formation of clones, but not completely
- Clonal growth, results read on the day 14 ([1]; Exp 17, a: close to densely seeded cell areas, Low: Colchicine 0.1, Podophyllotoxin 0.3, Etoposide 20, 4-OH—OPB 0.67 μM in wells, DMSO 1.16 μl): ++
- Clonal growth, results read on the day 14 ([1]; Exp 17, a: close to densely seeded cell areas, Medium: Colchicine 0.3, Podophyllotoxin 0.9, Etoposide 60, 4-OH—OPB 2 μM in wells, DMSO 6.8 μl): ++
- Clonal growth, results read on the day 14 ([1]; Exp 17, b: sparsely seeded areas in the same agar culture, Low: Colchicine 0.1, Podophyllotoxin 0.3, Etoposide 20, 4-OH—OPB 0.67 μM in wells, DMSO 1.16 μl): ++
- Concentration up to which growth was approximately unaffected ([1]; Exp 17, soft agar cultures of S100T1): up to 1%
- Growth inhibition at concentrations administered along with the test substances ([1]; Exp 19): did not show growth inhibition
- Significance ([1]; a: close to densely seeded cell areas, High: Colchicine 1, Podophyllotoxin 3, Etoposide 200, 4-OH—OPB 6.7 μM in wells, DMSO 29.2 μl): Probably
- Significance ([1]; a: close to densely seeded cell areas, Low: Colchicine 0.1, Podophyllotoxin 0.3, Etoposide 20, 4-OH—OPB 0.67 μM in wells, DMSO 1.16 μl): No
- Significance ([1]; a: close to densely seeded cell areas, Medium: Colchicine 0.3, Podophyllotoxin 0.9, Etoposide 60, 4-OH—OPB 2 μM in wells, DMSO 6.8 μl): No
- Significance ([1]; b: sparsely seeded areas, High: Colchicine 1, Podophyllotoxin 3, Etoposide 200, 4-OH—OPB 6.7 μM in wells, DMSO 29.2 μl): Yes
- Significance ([1]; b: sparsely seeded areas, Low: Colchicine 0.1, Podophyllotoxin 0.3, Etoposide 20, 4-OH—OPB 0.67 μM in wells, DMSO 1.16 μl): No
- Significance ([1]; b: sparsely seeded areas, Medium: Colchicine 0.3, Podophyllotoxin 0.9, Etoposide 60, 4-OH—OPB 2 μM in wells, DMSO 6.8 μl): No

Compound: O=C1NC(=O)C(c2ccccc2)(c2ccccc2)N1 [Diphenhydantoin]
- Effect on clonal growth at 10-100 μM [2, 3]: did not inhibit clonal growth significantly

Compound: O=c1[nH]cc(F)c(=O)[nH]1 [Fluorouracil, reference compound]
- Effect on clonal growth and toxicity ([1]; Exp 21, 117000 S100T1 cells/well): relatively moderate inhibition of clonal growth and low toxicity independent of dosage
- Clonal growth ([1]; Exp 21, 117000 cells per well, Low concentration (see figure), H: area with high cell density): ++
- Clonal growth ([1]; Exp 21, High concentration, H: area with high cell density): ++
- Clonal growth ([1]; Exp 21, High concentration, L: area with low cell density): +
- Clonal growth ([1]; Exp 21, Low concentration, L: area with low cell density): +
- Clonal growth ([1]; Exp 21, Medium concentration, H: area with high cell density): ++
- Clonal growth ([1]; Exp 21, Medium concentration, L: area with low cell density): +
- Clonal growth, H high density area of cell gradient, High ([1]; high concentration): ++
- Clonal growth, L low density area of cell gradient, High ([1]; high concentration): +
- Clonal growth, H high density area of cell gradient, Low ([1]; low concentration): ++
- Clonal growth, L low density area of cell gradient, Low ([1]; low concentration): +
- Clonal growth, H high density area of cell gradient, Medium ([1]; medium concentration): ++
- Clonal growth, L low density area of cell gradient, Medium ([1]; medium concentration): +
- Effect on cell cloning in soft agar [1]: Rel. moderate inhibition of clonal growth

Compound: CC(C)Cc1ccc(C(C)C(=O)O)cc1 (stereo not shown) [Ibuprofen]
- Effect on clonal growth at 100 μM [2, 3]: insignificant inhibition
- Significance of results ([2]; Exp 16, read after 14 days, Ibuprofen No 8, ca. 223 μM): possible
- Significance ([2]; Exp 16 day 14, Ibuprofen No 8, 215 μM): possible
- Growth ([2]; Exp 16 day 14, Ibuprofen No 8, 215 μM in wells): (+)
- Growth ([2]; Exp 16 day 14, Ibuprofen No 8, 464 μM in wells): (+))
- Significance ([2]; Exp 16 day 14, Ibuprofen No 8, 464 μM, doubtful because the solvent DMSO might be inhibiting): doubtful*
- Significance ([2]; Exp 16 day 21, Ibuprofen No 8, 215 μM): probable
- Growth ([2]; Exp 16 day 21, Ibuprofen No 8, 215 μM in wells): (+))
- Growth ([2]; Exp 16 day 21, Ibuprofen No 8, 464 μM in wells): (+))
- Significance ([2]; Exp 16 day 21, Ibuprofen No 8, 464 μM, *see conclusion (DMSO)): doubtful*
- Anti-clonal effect, summary of Exp 15 ([2]; S100T1 in soft agar): showed possible clonal inhibition at low
- Anti-clonal effect, summary of Exp 16 ([2]; S100T1 in soft agar): Ibuprofen and Naproxen possibly inhibited and Acetyl

Compound: COc1c(C)c2c(c(O)c1C/C=C(\C)CCC(=O)O)C(=O)OC2 [Mycophenolic ac]
- Clonal growth after 48 hours incubation ([1]; Exp 19, high concentration, H: high cell density part of the gradient): (+)
- Clonal growth after 48 hours incubation ([1]; Exp 19, high concentration, L: low cell density part of the gradient): (+)
- Clonal growth after 48 hours incubation ([1]; Exp 19, low concentration (exact conc. only in figure), H: high cell density part of the gradient): (+)
- Clonal growth after 48 hours incubation ([1]; Exp 19, low concentration, L: low cell density part of the gradient): (+)
- Clonal growth after 48 hours incubation ([1]; Exp 19, medium concentration, H: high cell density part of the gradient): (+)
- Clonal growth after 48 hours incubation ([1]; Exp 19, medium concentration, L: low cell density part of the gradient): (+)

Compound: COc1c(C)c2c(c(O)c1C/C=C(\C)CCC(=O)O)C(=O)OC2 [Mycophenolic acid, reference compound]
- Clonal growth, H high density area of cell gradient, High ([1]; high concentration): (+)
- Clonal growth, L low density area of cell gradient, High ([1]; high concentration): (+)
- Clonal growth, H high density area of cell gradient, Low ([1]; low concentration): (+)
- Clonal growth, L low density area of cell gradient, Low ([1]; low concentration): (+)
- Clonal growth, H high density area of cell gradient, Medium ([1]; medium concentration): (+)
- Clonal growth, L low density area of cell gradient, Medium ([1]; medium concentration): (+)
- Effect on cell cloning in soft agar [1]: Less growth in both high and low

Compound: CC1=C(CC(=O)O)c2cc(F)ccc2/C1=C\c1ccc([S+](C)[O-])cc1 (stereo not shown) [Sulindac, reference compound]
- Effect on clonal growth of sparsely seeded cells, low dose ([1]; Exp 26): clone-inducing effect
- Effect on clonal growth, high dose ([1]; Exp 26, 172800 S100T1 cells/well): weak anti-cloning effect on sparsely seeded cells; also recorded: abrogated this effect. It is considered logic
- Resulting clonal growth of treated cultures ([1]; H: area with high cell density, High concentration): ++
- Resulting clonal growth of treated cultures ([1]; H: area with high cell density, Low concentration): ++(+)
- Resulting clonal growth of treated cultures ([1]; H: area with high cell density, Medium concentration): ++
- Resulting clonal growth of treated cultures ([1]; L: area with low cell density, High concentration): +
- Resulting clonal growth of treated cultures ([1]; L: area with low cell density, Low concentration): +++
- Resulting clonal growth of treated cultures ([1]; L: area with low cell density, Medium concentration): ++
- Clonal growth, H high density area of cell gradient, High ([1]; high concentration): ++
- Clonal growth, L low density area of cell gradient, High ([1]; high concentration): +
- Clonal growth, H high density area of cell gradient, Low ([1]; low concentration): ++(+)
- Clonal growth, L low density area of cell gradient, Low ([1]; low concentration): +++
- Clonal growth, H high density area of cell gradient, Medium ([1]; medium concentration): ++
- Clonal growth, L low density area of cell gradient, Medium ([1]; medium concentration): ++
- Effect on cell cloning in soft agar [1]: Possible clonal stimulation at low

Compound: CN(Cc1cnc2nc(N)nc(N)c2n1)c1ccc(C(=O)N[C@@H](CCC(=O)O)C(=O)O)cc1 [methotrexate, Methotrexate, reference compound]
- Effect on growth ([1]; Exp 23, 180000 S100T1 cells/well): did not show significant growth inhibition at all
- Clonal growth ([1]; Experiment 23, A (area with high cell density), High concentration, 48 hours): +(+)
- Clonal growth ([1]; Experiment 23, A (area with high cell density), Low concentration, 48 hours): ++
- Clonal growth ([1]; Experiment 23, A (area with high cell density), Medium concentration, 48 hours): ++
- Clonal growth ([1]; Experiment 23, B (area with low cell density), High concentration, 48 hours): +
- Clonal growth ([1]; Experiment 23, B (area with low cell density), Low concentration, 48 hours): +
- Clonal growth ([1]; Experiment 23, B (area with low cell density), Medium concentration, 48 hours): +(+)

Compound: Somatotropin: growth hormone tested for clonal stimulation
- Effect on clonal growth ([1]; Exp 25, 48 hours incubation): seemed to create some large colonies
- Clonal growth ([1]; Experiment 25, H: area with high cell density, High concentration, after 48 hours incubation): ++
- Clonal growth ([1]; Experiment 25, H: area with high cell density, Low concentration, after 48 hours incubation): ++(+)
- Clonal growth ([1]; Experiment 25, H: area with high cell density, Medium concentration, after 48 hours incubation): ++(+)
- Clonal growth ([1]; Experiment 25, L: area with low cell density, High concentration, after 48 hours incubation): ++
- Clonal growth ([1]; Experiment 25, L: area with low cell density, Low concentration, after 48 hours incubation): ++(+)
- Clonal growth ([1]; Experiment 25, L: area with low cell density, Medium concentration, after 48 hours incubation): ++(+)
- Clonal growth, H high density area of cell gradient, High ([1]; high concentration): ++
- Clonal growth, L low density area of cell gradient, High ([1]; high concentration): ++
- Clonal growth, H high density area of cell gradient, Low ([1]; low concentration): ++(+)
- Clonal growth, L low density area of cell gradient, Low ([1]; low concentration): ++(+)
- Clonal growth, H high density area of cell gradient, Medium ([1]; medium concentration): ++(+)
- Clonal growth, L low density area of cell gradient, Medium ([1]; medium concentration): ++(+)
